Results reported in PubChem BioAssay AID330 (DTP/NCI, 2004).
“And” between values parts separate entries of the source, which are not always exact repeats. Equal entries are not always repeated. Toxic doses and inconclusive results are not listed. Rule for the calls: active = survival T/C of 150% or more; inactive = T/C below 125% in these data.

System: P388 leukemia ip, CD2F1 mice, survival T/C
Assay: NCI In Vivo Anticancer Drug Screen. Data for tumor model P388 Leukemia (intraperitoneal) in CD2F1 (CDF1) mice
Settings: endpoint: median survival time, higher = longer survival
How it was run: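 Mice carrying the transplanted tumor received test compound or vehicle. Survival was recorded in each group, and the value is the treated-group measurement divided by that of the vehicle-treated control group.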

Measured: T/C

O=C(Nc1cccc(O)c1)C(Cl)=C(Cl)Cl
inactive: dose: 3.12 mg/kg/injection, schedule: Q01DX005 (ip), vehicle: DMSO 109 % of control | dose: 6.25 mg/kg/injection, schedule: Q01DX005 (ip), vehicle: DMSO 104 % of control | dose: 6.25 mg/kg/injection, schedule: Q01DX005 (ip), vehicle: saline with Tween-80 101 % of control | dose: 12.5 mg/kg/injection, schedule: Q01DX005 (ip), vehicle: DMSO 109 % of control | dose: 12.5 mg/kg/injection, schedule: Q01DX005 (ip), vehicle: saline with Tween-80 115 % of control | dose: 25.0 mg/kg/injection, schedule: Q01DX005 (ip), vehicle: DMSO 108 % of control | dose: 25.0 mg/kg/injection, schedule: Q01DX005 (ip), vehicle: saline with Tween-80 110 % of control | dose: 50.0 mg/kg/injection, schedule: Q01DX005 (ip), vehicle: DMSO 104 % of control

S=c1nc[nH]c2nc[nH]c12
inactive: dose: 9.38 mg/kg/injection, schedule: Q01DX009 (ip), vehicle: alkali diluted with saline 111 % of control | dose: 18.8 mg/kg/injection, schedule: Q01DX009 (ip), vehicle: alkali diluted with saline 105 % of control | dose: 20.0 mg/kg/injection, schedule: Q01DX005 (ip), vehicle: alkali diluted with saline 110 % of control | dose: 20.0 mg/kg/injection, schedule: Q01DX005 (ip), vehicle: other 108 % of control and 92 % of control | dose: 20.0 mg/kg/injection, schedule: Q01DX009 (ip), vehicle: alkali diluted with saline 95 % of control | dose: 20.0 mg/kg/injection, schedule: Q01DX009 (ip), vehicle: alkali diluted with water 118 % of control | dose: 20.0 mg/kg/injection, schedule: Q04DX003 (ip), vehicle: other 110 % of control | dose: 20.0 mg/kg/injection, schedule: Q04DX003 (iv), vehicle: other 116 % of control | dose: 25.0 mg/kg/injection, schedule: Q01DX005 (ip), vehicle: alkali diluted with saline 105 % of control | dose: 25.0 mg/kg/injection, schedule: Q01DX005 (ip), vehicle: alkali diluted with water 100 % of control | dose: 25.0 mg/kg/injection, schedule: Q01DX009 (ip), vehicle: Klucel (hydroxypropylcellulose) (HPC) 115 % of control | dose: 28.13 mg/kg/injection, schedule: Q04DX003 (ip), vehicle: alkali diluted with saline 105 % of control | dose: 37.5 mg/kg/injection, schedule: Q01DX009 (ip), vehicle: alkali diluted with saline 110 % of control | dose: 37.5 mg/kg/injection, schedule: Q04DX003 (ip), vehicle: Klucel (hydroxypropylcellulose) (HPC) 121 % of control | dose: 40.0 mg/kg/injection, schedule: Q01DX001 (ip), vehicle: other 111 % of control | dose: 40.0 mg/kg/injection, schedule: Q01DX001 (iv), vehicle: other 100 % of control | dose: 40.0 mg/kg/injection, schedule: Q01DX005 (ip), vehicle: alkali diluted with saline 119 % of control | dose: 40.0 mg/kg/injection, schedule: Q01DX005 (ip), vehicle: other 107 % of control and 119 % of control | dose: 40.0 mg/kg/injection, schedule: Q01DX009 (ip), vehicle: alkali diluted with saline 101 % of control and 105 % of control and 97 % of control | dose: 40.0 mg/kg/injection, schedule: Q01DX009 (ip), vehicle: alkali diluted with water 86 % of control | dose: 40.0 mg/kg/injection, schedule: Q04DX003 (ip), vehicle: other 117 % of control | dose: 40.0 mg/kg/injection, schedule: Q04DX003 (iv), vehicle: other 99 % of control | dose: 50.0 mg/kg/injection, schedule: Q01DX005 (ip), vehicle: alkali diluted with saline 113 % of control | dose: 50.0 mg/kg/injection, schedule: Q01DX005 (ip), vehicle: alkali diluted with water 111 % of control | dose: 50.0 mg/kg/injection, schedule: Q01DX005 (ip), vehicle: saline 105 % of control | dose: 50.0 mg/kg/injection, schedule: Q01DX009 (ip), vehicle: Klucel (hydroxypropylcellulose) (HPC) 123 % of control | dose: 50.0 mg/kg/injection, schedule: Q01DX009 (ip), vehicle: alkali diluted with saline 99 % of control and 104 % of control | dose: 56.25 mg/kg/injection, schedule: Q04DX003 (ip), vehicle: alkali diluted with saline 99 % of control | dose: 60.0 mg/kg/injection, schedule: Q01DX009 (ip), vehicle: alkali diluted with saline 102 % of control and 113 % of control | dose: 75.0 mg/kg/injection, schedule: Q01DX009 (ip), vehicle: alkali diluted with saline 117 % of control | dose: 75.0 mg/kg/injection, schedule: Q04DX003 (ip), vehicle: Klucel (hydroxypropylcellulose) (HPC) 117 % of control | dose: 80.0 mg/kg/injection, schedule: Q01DX001 (iv), vehicle: other 103 % of control | dose: 80.0 mg/kg/injection, schedule: Q01DX005 (ip), vehicle: alkali diluted with saline 120 % of control | dose: 80.0 mg/kg/injection, schedule: Q01DX005 (ip), vehicle: other 95 % of control | dose: 80.0 mg/kg/injection, schedule: Q01DX009 (ip), vehicle: alkali diluted with saline 95 % of control | dose: 80.0 mg/kg/injection, schedule: Q04DX003 (iv), vehicle: other 104 % of control | dose: 100.0 mg/kg/injection, schedule: Q01DX005 (ip), vehicle: alkali diluted with saline 105 % of control | dose: 100.0 mg/kg/injection, schedule: Q01DX005 (ip), vehicle: alkali diluted with water 105 % of control | dose: 100.0 mg/kg/injection, schedule: Q01DX005 (ip), vehicle: saline 102 % of control and 108 % of control | dose: 112.5 mg/kg/injection, schedule: Q04DX003 (ip), vehicle: alkali diluted with saline 107 % of control | dose: 150.0 mg/kg/injection, schedule: Q01DX001 (ip), vehicle: alkali diluted with saline 101 % of control and 107 % of control | dose: 160.0 mg/kg/injection, schedule: Q01DX001 (iv), vehicle: other 103 % of control | dose: 160.0 mg/kg/injection, schedule: Q01DX005 (ip), vehicle: other 108 % of control and 112 % of control | dose: 160.0 mg/kg/injection, schedule: Q01DX009 (ip), vehicle: alkali diluted with saline 106 % of control | dose: 200.0 mg/kg/injection, schedule: Q01DX001 (ip), vehicle: alkali diluted with saline 108 % of control and 111 % of control | dose: 200.0 mg/kg/injection, schedule: Q01DX005 (ip), vehicle: alkali diluted with water 86 % of control | dose: 200.0 mg/kg/injection, schedule: Q01DX005 (ip), vehicle: saline 100 % of control and 115 % of control and 124 % of control | dose: 225.0 mg/kg/injection, schedule: Q04DX003 (ip), vehicle: alkali diluted with saline 98 % of control | dose: 250.0 mg/kg/injection, schedule: Q01DX001 (ip), vehicle: alkali diluted with saline 107 % of control | dose: 250.0 mg/kg/injection, schedule: Q01DX001 (ip), vehicle: saline 102 % of control | dose: 300.0 mg/kg/injection, schedule: Q01DX001 (ip), vehicle: alkali diluted with saline 112 % of control | dose: 320.0 mg/kg/injection, schedule: Q01DX001 (ip), vehicle: other 100 % of control | dose: 320.0 mg/kg/injection, schedule: Q01DX001 (iv), vehicle: other 108 % of control | dose: 320.0 mg/kg/injection, schedule: Q04DX003 (iv), vehicle: other 100 % of control | dose: 400.0 mg/kg/injection, schedule: Q01DX005 (ip), vehicle: saline 89 % of control | dose: 400.0 mg/kg/injection, schedule: Q01DX009 (ip), vehicle: Klucel (hydroxypropylcellulose) (HPC) 115 % of control | dose: 500.0 mg/kg/injection, schedule: Q01DX001 (ip), vehicle: saline 104 % of control | dose: 640.0 mg/kg/injection, schedule: Q01DX001 (iv), vehicle: other 105 % of control | dose: 1000.0 mg/kg/injection, schedule: Q01DX001 (ip), vehicle: saline 99 % of control

CN(C)CCN1C(=O)Cc2ccccc2C1=O
inactive: dose: 12.5 mg/kg/injection, schedule: Q01DX001 (ip), vehicle: saline 111 % of control | dose: 25.0 mg/kg/injection, schedule: Q01DX001 (ip), vehicle: saline 109 % of control | dose: 50.0 mg/kg/injection, schedule: Q01DX001 (ip), vehicle: saline 101 % of control

O=[N+]([O-])c1ccc(-c2nc(CN3CCOCC3)cs2)s1
inactive: dose: 25.0 mg/kg/injection, schedule: Q01DX009 (ip), vehicle: saline with Tween-80 98 % of control | dose: 50.0 mg/kg/injection, schedule: Q01DX009 (ip), vehicle: saline with Tween-80 103 % of control | dose: 100.0 mg/kg/injection, schedule: Q01DX009 (ip), vehicle: saline with Tween-80 106 % of control

O=C(N/N=C/c1cc(Br)cc(Br)c1[O-])c1ccccc1.O=C(N/N=C/c1cc(Br)cc(Br)c1[O-])c1ccccc1.[Cu+2]
inactive: dose: 12.5 mg/kg/injection, schedule: Q01DX001 (ip), vehicle: saline with Tween-80 91 % of control | dose: 25.0 mg/kg/injection, schedule: Q01DX001 (ip), vehicle: saline with Tween-80 89 % of control | dose: 50.0 mg/kg/injection, schedule: Q01DX001 (ip), vehicle: saline with Tween-80 100 % of control

CCc1nc(N)nc(N)c1-c1ccc(NC)c(N)c1
inactive: dose: 100.0 mg/kg/injection, schedule: Q04DX002 (ip), vehicle: Klucel (hydroxypropylcellulose) (HPC) 96 % of control | dose: 200.0 mg/kg/injection, schedule: Q04DX002 (ip), vehicle: Klucel (hydroxypropylcellulose) (HPC) 105 % of control
